One data set relates to Y-79 cells. The data set can be described thus: Anti-proliferative activity. The format is cell-based, human. Particulars: for IC50: Homo sapiens, Y79, read-out: IC50 against retinoblastoma cells; for Reduction of IC50 value in the presence of moxifloxacin: Y-79, MTT, moxifloxacin 500 µM.
Another data set relates to IL-6. The data set can be described thus: Pro-inflammatory cytokines assay, IL-6 release. It counts as cell-based, human. Particulars: 48 h; for Reduction of IL-6 release in presence of moxifloxacin: moxifloxacin 500 µM.
The test system of another data set is IL-8. The data set can be described thus: Pro-inflammatory cytokines assay, IL-8 release. The format is cell-based, human. Particulars: 48 h; for Reduction of IL-8 release in presence of moxifloxacin: moxifloxacin 500 µM.
Data set [1] concerns the target T1, MDR1 (Homo sapiens, UniProt P08183). The data set can be described thus: in vitro. Particulars: MDCK-MDR1.
The target in data set [2] is T2, MRP2 (Homo sapiens, UniProt Q92887). The data set can be described thus: in vitro. Particulars: dog.
T2 sequence (Q92887 whole entry): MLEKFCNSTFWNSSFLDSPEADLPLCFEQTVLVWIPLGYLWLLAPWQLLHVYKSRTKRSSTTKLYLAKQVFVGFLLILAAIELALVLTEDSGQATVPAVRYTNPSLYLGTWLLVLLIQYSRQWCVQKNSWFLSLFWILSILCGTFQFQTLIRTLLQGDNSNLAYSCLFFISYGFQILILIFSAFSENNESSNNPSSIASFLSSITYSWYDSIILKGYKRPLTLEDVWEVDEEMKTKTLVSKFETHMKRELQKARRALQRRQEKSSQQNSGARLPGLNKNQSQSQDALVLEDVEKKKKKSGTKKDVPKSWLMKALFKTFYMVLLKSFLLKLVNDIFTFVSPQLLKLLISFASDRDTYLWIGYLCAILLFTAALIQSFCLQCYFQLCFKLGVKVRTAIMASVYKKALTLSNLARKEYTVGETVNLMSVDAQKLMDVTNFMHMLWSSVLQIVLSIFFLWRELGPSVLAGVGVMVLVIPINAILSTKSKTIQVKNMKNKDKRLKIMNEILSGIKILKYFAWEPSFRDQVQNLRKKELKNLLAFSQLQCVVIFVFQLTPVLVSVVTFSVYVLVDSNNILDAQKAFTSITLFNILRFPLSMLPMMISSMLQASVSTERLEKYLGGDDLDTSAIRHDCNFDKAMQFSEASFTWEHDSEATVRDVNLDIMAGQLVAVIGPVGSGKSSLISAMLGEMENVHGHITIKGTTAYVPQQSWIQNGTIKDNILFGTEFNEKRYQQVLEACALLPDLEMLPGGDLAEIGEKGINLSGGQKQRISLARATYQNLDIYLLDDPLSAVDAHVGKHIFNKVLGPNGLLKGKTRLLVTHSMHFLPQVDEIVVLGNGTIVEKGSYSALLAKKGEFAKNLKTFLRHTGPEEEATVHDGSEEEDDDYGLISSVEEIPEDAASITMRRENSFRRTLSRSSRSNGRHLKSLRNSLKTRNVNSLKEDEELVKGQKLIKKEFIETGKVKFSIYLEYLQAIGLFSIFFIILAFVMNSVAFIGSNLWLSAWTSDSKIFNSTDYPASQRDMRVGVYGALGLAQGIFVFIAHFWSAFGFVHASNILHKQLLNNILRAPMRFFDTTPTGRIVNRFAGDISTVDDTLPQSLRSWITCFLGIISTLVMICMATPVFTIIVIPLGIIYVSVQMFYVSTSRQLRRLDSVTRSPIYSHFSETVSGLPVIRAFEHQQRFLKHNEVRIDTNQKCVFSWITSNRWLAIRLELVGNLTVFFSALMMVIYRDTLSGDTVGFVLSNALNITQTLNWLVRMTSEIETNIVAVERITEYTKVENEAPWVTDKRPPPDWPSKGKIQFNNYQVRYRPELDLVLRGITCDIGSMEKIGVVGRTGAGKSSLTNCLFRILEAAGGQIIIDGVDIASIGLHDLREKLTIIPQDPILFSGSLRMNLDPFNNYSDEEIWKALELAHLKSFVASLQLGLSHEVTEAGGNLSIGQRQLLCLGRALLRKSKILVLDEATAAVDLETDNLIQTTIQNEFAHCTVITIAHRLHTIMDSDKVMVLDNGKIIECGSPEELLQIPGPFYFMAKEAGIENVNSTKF
The target in data set [3] is T2, MRP2. As to conditions: MDCK-MRP2; [14C]-erythromycin 0.25 µCi/mL; 30 min; in presence of MK571 50 µM.
Data set [4] concerns the target T2, MRP2. The data set can be described thus: Bi-directional transport of moxifloxacin across MDCK-MRP2 cells. The format is in vitro ADME.
The test system of data set [5] is caspase-3. The data set can be described thus: Caspase-3 assay in Y-79 cells. The format is cell-based, human.
Data set [6] concerns the target T1, MDR1.
Data set [7] deals with T1, MDR1. The data set can be described thus: in vitro. As to conditions: MDCK-MDR1, pH 7.4.
A further data set in a line: in vitro. As to conditions: dog, MDCK, pH 7.4.
Data set [8] has as its target T1, MDR1. The data set can be described thus: cell-based.
Data set [9] has as its target T2, MRP2. The data set can be described thus: cell-based.
In data set [10] the target is T1, MDR1. The data set can be described thus: Bidirectional transport of anticancer agents across MDCK-MDR1 cells. Particulars: moxifloxacin 500 µM.
Data set [11] deals with T2, MRP2. The data set can be described thus: Bidirectional transport of anticancer agents across MDCK-MRP2 cells. Particulars: moxifloxacin 500 µM.
Data set [12] deals with T1, MDR1. The data set can be described thus: Bi-directional transport of [14C]-erythromycin across MDCK-MDR1 cells. The format is in vitro ADME. As to conditions: MDCK-MDR1, pH 7.4.
The target in data set [13] is T2, MRP2. The data set can be described thus: Bi-directional transport of [14C]-erythromycin across MDCK-MRP2 cells. It counts as in vitro ADME. As to conditions: pH 7.4.
Data set [14] has as its system caspase-3. As to conditions: read-out: Km (caspase-3 substrate); ref Anaspec, San Jose, CA; cited from earlier work.
Where [15] appears, read: conclusion from uptake and bi-directional transport.

T1 sequence (P08183 whole entry): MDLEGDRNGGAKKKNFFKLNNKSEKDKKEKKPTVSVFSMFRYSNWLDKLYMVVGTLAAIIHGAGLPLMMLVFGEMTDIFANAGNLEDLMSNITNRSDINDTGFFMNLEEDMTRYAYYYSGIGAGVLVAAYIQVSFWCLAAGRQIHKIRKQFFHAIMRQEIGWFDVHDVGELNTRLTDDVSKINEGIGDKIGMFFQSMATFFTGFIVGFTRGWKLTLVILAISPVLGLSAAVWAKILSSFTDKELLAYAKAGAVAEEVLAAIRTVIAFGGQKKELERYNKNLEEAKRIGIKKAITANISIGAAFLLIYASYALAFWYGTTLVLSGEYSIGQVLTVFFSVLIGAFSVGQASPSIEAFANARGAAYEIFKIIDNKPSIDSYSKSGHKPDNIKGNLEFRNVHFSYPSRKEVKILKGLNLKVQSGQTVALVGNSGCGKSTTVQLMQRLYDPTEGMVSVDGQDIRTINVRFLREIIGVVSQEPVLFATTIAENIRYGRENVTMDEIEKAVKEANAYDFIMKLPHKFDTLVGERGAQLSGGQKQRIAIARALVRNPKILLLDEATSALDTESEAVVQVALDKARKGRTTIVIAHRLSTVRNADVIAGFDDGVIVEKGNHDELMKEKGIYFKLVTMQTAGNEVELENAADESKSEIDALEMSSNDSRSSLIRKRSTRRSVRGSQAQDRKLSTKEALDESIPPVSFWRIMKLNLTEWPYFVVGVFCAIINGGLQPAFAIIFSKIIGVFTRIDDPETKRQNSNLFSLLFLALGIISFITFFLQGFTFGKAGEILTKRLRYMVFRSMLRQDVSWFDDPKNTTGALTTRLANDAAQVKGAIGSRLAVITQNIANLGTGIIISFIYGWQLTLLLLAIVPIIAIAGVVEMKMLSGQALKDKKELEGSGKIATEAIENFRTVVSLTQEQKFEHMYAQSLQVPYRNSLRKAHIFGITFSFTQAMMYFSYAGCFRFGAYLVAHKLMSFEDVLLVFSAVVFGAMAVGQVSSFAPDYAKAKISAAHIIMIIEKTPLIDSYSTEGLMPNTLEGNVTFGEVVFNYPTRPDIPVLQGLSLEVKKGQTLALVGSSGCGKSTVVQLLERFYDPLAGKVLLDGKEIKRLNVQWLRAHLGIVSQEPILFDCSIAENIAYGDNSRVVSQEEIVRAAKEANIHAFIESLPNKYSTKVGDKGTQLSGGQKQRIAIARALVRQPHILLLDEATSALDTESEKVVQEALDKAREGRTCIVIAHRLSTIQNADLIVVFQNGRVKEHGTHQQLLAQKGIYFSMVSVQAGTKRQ

The term IC50 denotes the midpoint of a concentration-inhibition curve. As usually defined, the Papp A→B is how fast a substance crosses the layer from the apical side. A low value points to poor permeation. What is called Papp B→A is how fast a substance crosses the layer from the basolateral side. Consider `COc1cc([C@@H]2c3cc4c(cc3[C@@H](O[C@@H]3O[C@@H]5CO[C@@H](C)O[C@H]5[C@H](O)[C@H]3O)[C@H]3COC(=O)[C@H]23)OCO4)cc(OC)c1O` [Etoposide], for which the IC50 in the data set with Y-79 cells was 27.1 µM. Besides, the “Reduction of IC50 value in the presence of moxifloxacin” value (from here on “Reduction of IC50 value”) in the data set with Y-79 cells worked out at 13 fold. Further, the “Release of IL-6” value with IL-6 (anticancer agent 0.5 µg alone) turned out to be 105.20 ± 3.90 pg/mL; in the data set on IL-6 (anticancer agent 1.0 µg alone) it was 151.40 ± 10.00 pg/mL. Besides, the “Reduction of IL-6 release in presence of moxifloxacin” value (“Reduction of IL-6 release” below) came to 1.3 fold in the data set with IL-6 (anticancer agent 0.5 µg) and 1.4 fold in the data set with IL-6 (anticancer agent 1.0 µg). Besides, the entries for the “Release of IL-8” value in the data set on IL-8 (anticancer agent 0.5 µg alone) and with IL-8 (anticancer agent 1.0 µg alone) were 191.90 ± 9.10 pg/mL and 286.60 ± 16.60 pg/mL, respectively. Moreover, the “Reduction of IL-8 release in presence of moxifloxacin” value (“Reduction of IL-8 release” for short) in the data set on IL-8 (anticancer agent 0.5 µg) is on record as 1.60 fold; in the data set with IL-8 (anticancer agent 1.0 µg), 1.28 fold. The Papp A→B at 0.5 µCi/mL at MDR1 [1] stood at 3.57 ± 0.65 ×10⁻⁶ cm/s; at MRP2 [2] it was 37.8 ± 2.7 ×10⁻⁶ cm/s. Also, the Papp B→A at 0.5 µCi/mL at MDR1 [1] was found to be 11.6 ± 1.78 ×10⁻⁶ cm/s; at MRP2 [2], 207 ± 17.4 ×10⁻⁶ cm/s.

`CN(C)C(=O)CCSC(SCCC(=O)O)c1cccc(/C=C/c2ccc3ccc(Cl)cc3n2)c1` (centres unmarked) [MK571]: at MRP2 [3], the “Cellular accumulation of [14C]-erythromycin relative to control” value was 273%.

On to `COc1c(N2C[C@@H]3CCCN[C@@H]3C2)c(F)cc2c(=O)c(C(=O)O)cn(C3CC3)c12` [Moxifloxacin], for which the “Increase of AP-BL permeability of moxifloxacin” value on MRP2 [4] (MDCK-MRP2, in presence of MK571) is listed as 2.10 times; at MDR1 [6] (MDCK-MDR1, in presence of GF120918), 2.80 times. For the same molecule, on MRP2 [4] (setting [15]), the “Substrate of MRP2 efflux transporter” value is on record as “substrate”. Besides, the Papp A→B at 500 µM turned out to be 0.78 ± 0.13 ×10⁻⁶ cm/s at MRP2 [4] (human, pH 7.4); 5.81 ± 0.44 ×10⁻⁶ cm/s on MDR1 [7]; 5.7 ± 0.04 ×10⁻⁶ cm/s in “in vitro”. In addition, the Papp B→A at 500 µM on MRP2 [4] (human, pH 7.4) turned out to be 1.97 ± 0.41 ×10⁻⁶ cm/s; at MDR1 [7] it was 20.5 ± 2.26 ×10⁻⁶ cm/s; in “in vitro”, 7.4 ± 0.14 ×10⁻⁶ cm/s. In addition, in the data set with caspase-3 [5], the “Caspase-3 activity, moxifloxacin alone” value is listed as “slightly elevated”. Further, on MDR1 [6] (setting [15]), the “Substrate of MDR1 efflux transporter” value is given as “substrate”. Also, the IC50 was found to be 217 µM at MDR1 [8] and 187 µM on MRP2 [9].

For orientation: efflux ratio means the permeability from basolateral to apical divided by that in the opposite direction, in the common usage. For `CC[C@@]1(O)C(=O)OCc2c1cc1n(c2=O)Cc2cc3c(CN(C)C)c(O)ccc3nc2-1` [Topotecan], the IC50 in the data set with Y-79 cells stood at 27.9 µM. For the same molecule, the “Reduction of IC50 value” value with Y-79 cells is on record as 10 fold. For the same molecule, the “Release of IL-6” value was found to be 156.90 ± 2.70 pg/mL with IL-6 (anticancer agent 0.5 µg alone) and 157.50 ± 8.80 pg/mL in the data set with IL-6 (anticancer agent 1.0 µg alone). For the same molecule, the entries for the “Reduction of IL-6 release” value with IL-6 (anticancer agent 0.5 µg) and in the data set with IL-6 (anticancer agent 1.0 µg) were 1.3 fold and 1.2 fold, respectively. Further, the “Release of IL-8” value with IL-8 (anticancer agent 0.5 µg alone) is 157.70 ± 12.60 pg/mL; with IL-8 (anticancer agent 1.0 µg alone), 239.20 ± 13.90 pg/mL. Further, the figures for the “Reduction of IL-8 release” value with IL-8 (anticancer agent 0.5 µg) and in the data set on IL-8 (anticancer agent 1.0 µg) were 1.48 fold and 1.30 fold, respectively. In addition, the Papp A→B at 0.5 µCi/mL turned out to be 0.75 ± 0.03 ×10⁻⁶ cm/s on MDR1 [1] and 8.06 ± 0.66 ×10⁻⁶ cm/s on MRP2 [2]. Further, the Papp B→A at 0.5 µCi/mL at MDR1 [1] worked out at 3.5 ± 0.28 ×10⁻⁶ cm/s; at MRP2 [2], 24.8 ± 2.44 ×10⁻⁶ cm/s. In addition, the efflux ratio at 0.5 µCi/mL turned out to be 4.63 at MDR1 [1] and 3.07 at MRP2 [2]. Besides, the “Elevation of AP-BL permeability by moxifloxacin” value on MDR1 [10] worked out at 2.08 fold; on MRP2 [11] it was 1.57 fold.

For the molecule `CC[C@]1(O)C[C@@H]2CN(CCc3c([nH]c4ccccc34)[C@@](C(=O)OC)(c3cc4c(cc3OC)N(C)[C@H]3[C@@](O)(C(=O)OC)[C@H](OC(C)=O)[C@]5(CC)C=CCN6CC[C@]43[C@@H]65)C2)C1` [Vinblastine], the IC50 in the data set on Y-79 cells came to 0.0519 µM. The “Reduction of IC50 value” value in the data set with Y-79 cells turned out to be 2 fold. The results for the “Release of IL-6” value in the data set on IL-6 (anticancer agent 0.5 µg alone) and with IL-6 (anticancer agent 1.0 µg alone) were 52.90 ± 4.30 pg/mL and 73.60 ± 2.30 pg/mL, respectively. The “Reduction of IL-6 release” value in the data set on IL-6 (anticancer agent 0.5 µg) was found to be 1.11 fold; in the data set with IL-6 (anticancer agent 1.0 µg), 1.42 fold. Also, the “Release of IL-8” value in the data set on IL-8 (anticancer agent 0.5 µg alone) came to 140.20 ± 14.40 pg/mL; in the data set with IL-8 (anticancer agent 1.0 µg alone), 284.90 ± 18.00 pg/mL. The “Reduction of IL-8 release” value was 1.40 fold in the data set with IL-8 (anticancer agent 0.5 µg) and 1.08 fold in the data set on IL-8 (anticancer agent 1.0 µg). Further, the Papp A→B at 0.5 µCi/mL came to 1.55 ± 0.03 ×10⁻⁶ cm/s on MDR1 [1] and 13.5 ± 3.24 ×10⁻⁶ cm/s at MRP2 [2]. Also, the Papp B→A at 0.5 µCi/mL on MDR1 [1] turned out to be 10.2 ± 0.47 ×10⁻⁶ cm/s; on MRP2 [2], 73.8 ± 8.16 ×10⁻⁶ cm/s. Also, the “Elevation of AP-BL permeability by moxifloxacin” value on MDR1 [10] worked out at 2.55 fold.

At MDR1 [12], `CC[C@H]1OC(=O)[C@H](C)[C@@H](O[C@H]2C[C@@](C)(OC)[C@@H](O)[C@H](C)O2)[C@H](C)[C@@H](O[C@@H]2O[C@H](C)C[C@H](N(C)C)[C@H]2O)[C@](C)(O)C[C@@H](C)C(=O)[C@H](C)[C@@H](O)[C@]1(C)O` [[^14C]-erythromycin, Erythromycin] displayed a Papp A→B at 3 h, 0.5 µCi/mL of 5.44 ± 0.52 ×10⁻⁶ cm/s. Besides, the Papp B→A at 3 h, 0.5 µCi/mL on MDR1 [12] turned out to be 18.8 ± 1.05 ×10⁻⁶ cm/s; on MRP2 [13], 2.7 ± 0.18 ×10⁻⁶ cm/s.

As a reminder, the Km is the concentration of substrate that gives half-maximal velocity. As for Ac-DEVD-AMC, in the data set with caspase-3 [14], the Km is 9.7 µM.

These data come from PMC3918950 (Experimental eye research, 2013).
